Species on record: Rattus norvegicus
Assay: Open TG-GATES - Regimen: Single
Assay type: toxicity, organism-based, Sprague-Dawley
Set-up: regimen Single, gender Male, age 6 weeks
Details: in vivo, po, 100 mg/kg, route gavage, dose level High; for APTT / Bas / Eos / Fbg / Hb / Ht / Lym / MCH / MCHC / MCV / Mono / Neu / PT / Plat / RBC / Ret / WBC: tissue Blood; for A/G / ALP / ALT / AST / BUN / CRE / Ca / Cl / DBIL / GLC / IP / K / LDH / Na / PL / RALB / TBIL / TC / TG / TP / gamma-GTP: tissue Plasma

Cn1cc[nH]c1=S [METHIMAZOLE]
TERMINAL_BW (3 h): 213.6 g
APTT (3 h): 21.9 s
Bas (3 h): 0%
Eos (3 h): 1.2%
Fbg (3 h): 315 mg/dL
Hb (3 h): 13.9 g/dL
Ht (3 h): 39.4%
Lym (3 h): 74%
MCH (3 h): 21.8 pg
MCHC (3 h): 35.2%
MCV (3 h): 61.9 fL
Mono (3 h): 2%
Neu (3 h): 23%
PT (3 h): 15.4 s
Plat (3 h): 121.9 x10_4/uL
RBC (3 h): 636.8 x10_4/ul
Ret (3 h): 8.7%
WBC (3 h): 50 x10_2/uL
A/G (3 h): 1.2
ALP (3 h): 1490.2 IU/L
ALT (3 h): 55 IU/L
AST (3 h): 72.8 IU/L
BUN (3 h): 11.8 mg/dL
CRE (3 h): 0.1 mg/dL
Ca (3 h): 10.6 mg/dL
Cl (3 h): 102.8 meq/L
DBIL (3 h): 0.002 mg/dL
GLC (3 h): 191.2 mg/dL
IP (3 h): 9.7 mg/dL
K (3 h): 4.2 meq/L
LDH (3 h): 351.4 IU/L
Na (3 h): 140 meq/L
PL (3 h): 153.6 mg/dL
RALB (3 h): 3 g/dL
TBIL (3 h): 0.008 mg/dL
TC (3 h): 89.2 mg/dL
TG (3 h): 62.8 mg/dL
TP (3 h): 5.6 g/dL
gamma-GTP (3 h): 1 IU/L
TERMINAL_BW (6 h): 210.2 g
APTT (6 h): 22.6 s
Bas (6 h): 0%
Eos (6 h): 0.8%
Fbg (6 h): 306.6 mg/dL
Hb (6 h): 14.1 g/dL
Ht (6 h): 40.5%
Lym (6 h): 72.4%
MCH (6 h): 21.4 pg
MCHC (6 h): 34.7%
MCV (6 h): 61.7 fL
Mono (6 h): 3%
Neu (6 h): 23%
PT (6 h): 16 s
Plat (6 h): 117.2 x10_4/uL
RBC (6 h): 657.2 x10_4/ul
Ret (6 h): 7.8%
WBC (6 h): 83.4 x10_2/uL
A/G (6 h): 1.1
ALP (6 h): 1474.2 IU/L
ALT (6 h): 46.2 IU/L
AST (6 h): 66.8 IU/L
BUN (6 h): 10 mg/dL
CRE (6 h): 0.1 mg/dL
Ca (6 h): 10.5 mg/dL
Cl (6 h): 104.4 meq/L
DBIL (6 h): 0.002 mg/dL
GLC (6 h): 193 mg/dL
IP (6 h): 9.1 mg/dL
K (6 h): 4.2 meq/L
LDH (6 h): 344.8 IU/L
Na (6 h): 140.2 meq/L
PL (6 h): 136.6 mg/dL
RALB (6 h): 2.9 g/dL
TBIL (6 h): 0.014 mg/dL
TC (6 h): 80.2 mg/dL
TG (6 h): 52.4 mg/dL
TP (6 h): 5.5 g/dL
gamma-GTP (6 h): 1.2 IU/L
TERMINAL_BW (9 h): 206.1 g
APTT (9 h): 21.2 s
Bas (9 h): 0%
Eos (9 h): 1%
Fbg (9 h): 319.2 mg/dL
Hb (9 h): 13.8 g/dL
Ht (9 h): 39%
Lym (9 h): 71.4%
MCH (9 h): 21.8 pg
MCHC (9 h): 35.3%
MCV (9 h): 61.7 fL
Mono (9 h): 2.8%
Neu (9 h): 23.4%
PT (9 h): 16.5 s
Plat (9 h): 134.8 x10_4/uL
RBC (9 h): 631.2 x10_4/ul
Ret (9 h): 8.1%
WBC (9 h): 88.6 x10_2/uL
A/G (9 h): 1.2
ALP (9 h): 1403 IU/L
ALT (9 h): 47 IU/L
AST (9 h): 69.8 IU/L
BUN (9 h): 12.6 mg/dL
CRE (9 h): 0.1 mg/dL
Ca (9 h): 10.4 mg/dL
Cl (9 h): 105.6 meq/L
DBIL (9 h): 0.004 mg/dL
GLC (9 h): 195.2 mg/dL
IP (9 h): 8.6 mg/dL
K (9 h): 4.2 meq/L
LDH (9 h): 309.6 IU/L
Na (9 h): 140.6 meq/L
PL (9 h): 144.4 mg/dL
RALB (9 h): 2.9 g/dL
TBIL (9 h): 0.014 mg/dL
TC (9 h): 78.6 mg/dL
TG (9 h): 71.6 mg/dL
TP (9 h): 5.5 g/dL
gamma-GTP (9 h): 1 IU/L
TERMINAL_BW (24 h): 209.2 g
APTT (24 h): 20.8 s
Bas (24 h): 0%
Eos (24 h): 1.2%
Fbg (24 h): 303.8 mg/dL
Hb (24 h): 14.1 g/dL
Ht (24 h): 40%
Lym (24 h): 76.8%
MCH (24 h): 21.6 pg
MCHC (24 h): 35.3%
MCV (24 h): 61.1 fL
Mono (24 h): 2.4%
Neu (24 h): 18.8%
PT (24 h): 16.5 s
Plat (24 h): 125.7 x10_4/uL
RBC (24 h): 655.6 x10_4/ul
Ret (24 h): 7.6%
WBC (24 h): 63.5 x10_2/uL
A/G (24 h): 1.2
ALP (24 h): 1903.8 IU/L
ALT (24 h): 44.2 IU/L
AST (24 h): 55.6 IU/L
BUN (24 h): 12.6 mg/dL
CRE (24 h): 0.1 mg/dL
Ca (24 h): 10.9 mg/dL
Cl (24 h): 106.4 meq/L
DBIL (24 h): 0.004 mg/dL
GLC (24 h): 170 mg/dL
IP (24 h): 7.2 mg/dL
K (24 h): 4.3 meq/L
LDH (24 h): 263 IU/L
Na (24 h): 142 meq/L
PL (24 h): 159.8 mg/dL
RALB (24 h): 2.9 g/dL
TBIL (24 h): 0.016 mg/dL
TC (24 h): 84.6 mg/dL
TG (24 h): 129.6 mg/dL
TP (24 h): 5.4 g/dL
gamma-GTP (24 h): 1 IU/L
